The subject of assay [1] is CIA (collagen-induced arthritis) mouse model. Kind of assay: Preventive effect of dTBP2 in CIA (collagen-induced arthritis) mouse model. In kind it is in vivo, male DBA1/j mice. The note with it: for joint thickness: preventive.
In another assay the test system is CIA mouse model. Kind of assay: Treatment effect of dTBP2 in CIA mouse model. The class given is in vivo, DBA1/j mice.
Assay [2] concerns atopic dermatitis mouse model. Nature of the assay: Effect of dTBP2 in atopic dermatitis mouse model (Biostir AD). The class given is in vivo, female NC/Nga mice. How it is done: Particularly, 5 week old specific pathogen free female NC/Nga mice were purchased from Orientbio Inc. (Seoul, Korea), which were adapted for 1 week. After depilating with a hair removal agent, Biostir® AD ointment (Biostir, Japan) was used to induce atopic dermatitis on the dorsal skin. That is, hair was removed from the back of the mouse, on which 150 μl of 4% SDS dissolved in PBS was applied. After 2-3 hours of natural dry, 100 mg of Biostir® AD cream was evenly applied on the back skin and the ear skin of the mouse. The cream was applied twice a week, 6 times total for 3 weeks. It was confirmed that the skin layer of the mouse became thick and keratin was formed on the back skin.
To investigate the effect of dTBP2 on atopic dermatitis in the atopic dermatitis-induced mouse, the positive control was administered with PBS, the comparative experimental group was administered with protopic ointment (Astellas Pharma Manufacturing Inc., USA), and the experimental group was treated with dTPB2. On day 0, PBS (subcutaneous injection, 25 mg/kg), protopic ointment (skin application, 100 mg/mouse) and dTBP2 (subcutaneous injection, 25 mg/kg) were respectively applied. On day 1, 100 mg of Biostir® AD cream was applied thereto. On day 2 and day 3, PBS, protopic ointment, and dTBP2 were treated thereto by the same manner as performed on day 0. On day 4, 100 mg of Biostir® AD cream was applied thereto. On day 5, PBS, protopic ointment, and dTBP2 were treated thereto by the same manner as performed on day 0.
Atopic symptoms were observed and presented as points according to the atopic index such as erythema, drying, excoriation, edema, and erosion, based on which a graph was made (FIG. 32b, 0: no symptoms, 1: weak symptoms, 2: median symptoms, 3: severe symptoms). It was confirmed on the graph that atopy was minor in the group treated with protopic ointment and dTBP2, compared with the control.
Once atopic allergy is induced, the stratum corneum and skin layer become thick and the infiltration of inflammatory cells is increased. For the histological evaluation, hematoxylin/eosin staining and toluidine blue staining were performed. The thickness of the skin and the infiltration of immune related inflammatory cells were observed under microscope. As a result, the atopic symptoms including the thick stratum corneum were improved in the groups treated with protopic ointment and dTBP2, compared with the control group treated with PBS alone (FIGS. 34a and 34b).
Lymph node assay examining the effect of an antigen or a drug by observing the changes of lymph node weight was performed to investigate inflammatory reaction induced by skin sensitizing materials.

Assay [3] deals with HRF. Nature of the assay: Phage clone ELISA for binding to immobilized HRF. How it is done: Particularly, HRF was dissolved in a coating buffer (0.1 M NaHCO 3, pH 8.6) at the concentration of 20 μg/ml, which was loaded in a polystyrene microtiter plate (50 ? /well), followed by coating at 4° C. for overnight and blocking non-specific binding with BSA. The plate was washed with 0.1% Tween/TBS (TBST) 6 times. […] The plate stood at room temperature for 1 hour. TBST was added thereto, and the plate stood for 5 minutes, followed by washing. The washing was performed once after one round of panning, 5 times after 2 and 3 rounds of panning, and 10 times after 4 rounds of panning. 50 ? of glycine/HCl buffer (pH 2.2) was added thereto, which stood for 5 minutes. Then, phages were eluted, and then neutralization was induced with 8 ? of 1 M Tris-HCl (pH 9.1). The eluted phage solution was added to 20 ? of ER2537 culture medium (OD600=0.5˜1), followed by culture in a 37° C. shaking incubator (rpm=200) for 2 hours. 100 ? of SB medium was added thereto, followed by culture for overnight with shaking (250 rpm). The culture solution was centrifuged at 10,000 rpm (4° C.) for 15 minutes. 100 ? of the obtained supernatant was added with 30 ? of 5×PEG/NaCl (20% PEG(w/v), 15% NaCl (w/v)), followed by dissolving for 5 minutes. The mixture was then left in ice for 30 minutes. The mixture was centrifuged at 10,000 rpm (4° C.) for 20 minutes and the supernatant was discarded. The obtained pellet was suspended in 1 ? of 3% BSA/TBS. After performing centrifugation at 14,000 rpm for 5 minutes, the supernatant was obtained and used for panning. Affinity purification and phage replication were repeated 4 times, followed by eluting phages. Each phage clone was obtained from the proper plate of the eluted phage, followed by ELISA. Those phage clones showing a specific affinity to HRF were separated, followed by sequencing to confirm the peptide sequence. Those phage display peptides showing dominant binding to HRF were selected and listed below:
That is, each phage plaque was added to 1 ? of the ER2537 culture medium (OD600=0.5˜1) cultured in SB medium, followed by culture in a 37° C. incubator (rpm=250) for 5 hours. 100 ? of each culture solution was added to 900 ? of SB medium, followed by culture for overnight. […]
Each phage solution separated above was diluted in an equal volume of 6% BSA/PBS, and 50 ? of the diluted solution was added to each well of the plastic well plate coated with HRF or BSA (control), which stood for 2 hours. […] After adding peroxidase substrate solution thereto (100 ? /well), OD405 was measured with an ELISA reader.
HRF was diluted serially by ⅕ fold each from the concentration of 20 μg/ ? […] The phage 2 solution diluted serially by ⅕ fold each (½, 1/10, 1/50, 1/250, and 1/1250 of the stock solution) was added thereto, followed by ELISA and OD405 was measured.

Assay [4] concerns HRF. Kind of assay: HRF binding affinity of heptamer peptides by ELISA (alanine scan of p2). Conditions: p2 and its substituted heptamers m1-m7. The text has this: In order to confirm the residues involved in the HRF binding affinity of the heptamer peptide of the present invention, the amino acid sequence of p2 was substituted with alanine (A), and only m5 was substituted with lysine (K). As a result, the following sequences were established: […]

Where [5] appears, read: dTBP2 25 mg/kg s.c., protopic ointment 100 mg/mouse, vs PBS.

Take “WYVYPSM (IgE-dependent histamine-releasing factor binding peptide2) [dTBP2, ID; NO: 24]”: the joint thickness result in assay [1] (5 mg of dTBP2) is “continuously increased until day 41 and rapidly increased from day 41 to day 46”. Besides, the “development of rheumatoid arthritis” value in assay [1] (25 mg of dTBP2, three times a week, vs vehicle alone or 5 mg) is given as “inhibited more significantly”. The joint thickness entry in assay [1] (25 mg of dTBP2) is recorded as “almost as same as that of the normal until day 46”. For the same substance, the “inhibition of incidence rate” value in assay [1] (day 31, 25 mg of dTBP2, vs vehicle alone or 5 mg) is recorded as “at least 50%”. The “inhibition of incidence rate” value in assay [1] (day 46, 25 mg of dTBP2, vs vehicle alone or 5 mg) is “at least 70%”. The joint thickness entry with CIA mouse model (5 mg of dTBP2 from day 41) is given as “continuously increased”. In addition, in the assay with CIA mouse model (25 mg of dTBP2 from day 41), the joint thickness entry is listed as “reduced”. Further, in the assay on CIA mouse model (25 mg of dTBP2 from day 41, vs vehicle alone or 5 mg), the arthritis clinical score entry is recorded as “getting lower”. In addition, in assay [2] (setting [5]), the “IL-4 mRNA level” value is listed as “significantly decreased”; the “IL-13 mRNA level” value is listed as “significantly decreased”; the “atopic symptoms including thick stratum corneum (H&E, skin thickness)” value is listed as “improved”; the histamine level entry is reported as “lower”. In assay [2] (setting [5]), the “level of Th17A” value was “lowered”; the “lymph node weight and size (lymph node assay)” value was “smaller in both weight and size than that of the PBS treated group”. The “infiltration of mast cells (toluidine blue)” value in assay [2] (dTBP2 25 mg/kg s.c., protopic ointment 100 mg/mouse, vs positive control) was “significantly reduced”. In addition, the “atopic symptoms as points (atopic index: erythema, drying, excoriation, edema, erosion)” value in assay [2] (dTBP2 subcutaneous 25 mg/kg, protopic ointment 100 mg/mouse, vs control) is “minor”. The “degree of atopy, visually confirmed” value in assay [2] (dTBP2 subcutaneous 25 mg/kg, protopic ointment skin application 100 mg/mouse, vs control) is listed as “lesser degree of atopy than the control group”. Further, the “binding force to serially diluted HRF (ELISA, OD405)” value with HRF [3] (HRF diluted until 0.4, 0.08, 0.016, and 0.032 μg/ml, phage solution serially diluted) was “maintained its binding force to HRF”. In addition, in the assay on HRF [3] (wells coated with HRF or BSA (control)), the “binding of phage clone to HRF (ELISA, OD405)” value is “specifically bind to HRF”. Further, in the assay with HRF [4], the “HRF binding affinity (rank order)” value is recorded as “p2, m6>m7>m3>m2>fm5>M1>m4”.

The values are drawn from patent US11518805B2, “Binding inhibitor between TCTP dimer type IgE-dependent histamine releasing factor and receptor thereof, and use thereof” (EWHA UNIVERSITY—INDUSTRY COLLABORATION FOUNDATION, priority 2014, dated 2022).
